Data on 2 compounds can be found in patent US20080045482A1, “COMPOSITIONS AND METHODS FOR THE TREATMENT OF VIRAL INFECTIONS” (priority 2006, published 2008).

The subject of data set [1] is A/California/2935/03 (H1N1). In kind it is cell-based, human influenza A virus.
The subject of data set [2] is A/NorthDakota/2463/03 (H3N2). In kind it is cell-based, human influenza A virus.
The test system of data set [3] is A/Equine1/Prague/1/56 (H3N8). In kind it is cell-based, equine influenza A virus.
The test system of data set [4] is A/Duck/Penn/10218/84 (H5N2). In kind it is cell-based, avian influenza A virus.
The test system of a further data set is B/1060/03. In kind it is cell-based, human influenza B virus.
The next data set can be described thus: pH in water. In kind it is physicochemical.
Data set [5] relates to viral strains from avian, human and equine influenza. In kind it is cell-based, influenza virus. The conditions noted are these: read-out: IC90 concentrations.
The nature of another data set: Aqueous solubility. The conditions noted are these: 37° C. in distilled water.
Data set [6] relates to Human Immunodeficiency Virus-1 (HIV-1). Particulars: HIV-1, in words.
A further data set relates to HIV-2. The conditions noted are these: HIV-2, in words.
In data set [7] the test system is Herpes Simplex Virus-1 (HSV-1). The conditions noted are these: HSV-1, in words.
For the next data set, the system named is HSV-2. The conditions noted are these: HSV-2, in words.
Data set [8] relates to Adenovirus type-1 (AdV-1, strain 65089). The conditions noted are these: AdV-1, strain 65089, in words.
In data set [9] the test system is Punta Torro Virus (strain Adames). Particulars: in words.
Data set [10] concerns Pichinde Virus (strain 4763). The conditions noted are these: Pichinde Virus strain 4763, in words.
Data set [11] concerns Vaccinia Virus (strain WR). The conditions noted are these: in words.
Data set [12] concerns Venezuelan Equine Encephalitis Virus (VEE, Trinidad strain).
For data set [13], the system named is West Nile Virus (WNV, strain New York). The conditions noted are these: in words.
In data set [14] the test system is Yellow Fever Virus (17D strain).

“And” between values parts separate entries of the source, which are not always exact repeats. Identical values can stand only once.

One may read the IC50 as the concentration needed to halve the response being measured. A high value points to a need for much substance. Turning to `O=C(O)P(O)(O)=S` [Thiovir], the IC50 stood at 38 µM in data set [1]; 29 µM in data set [2]; 55 µM in data set [3]; 32 µM in data set [4]; 92 µM in the data set on B/1060/03. Also, in “pH in water”, the pH in water result was “approximately 9”. Also, the IC90 in data set [5] is < 250 µM and ~200 µM. The same compound came in with an aqueous solubility in the data set “Aqueous solubility” of 40.8 g/100 mL.

As for `O=C(O)P(O)(O)=S` [TPFA, thiophosphonoformic acid], the inhibitory activity result (in [1]; in data set [2]; in data set [3]; in data set [4]; in data set [6]; in the data set on HIV-2) was “has inhibitory activity” each time. Further, the inhibitory activity result in data set [7] is listed as “has inhibitory activity”; with HSV-2, “has inhibitory activity”; in data set [8], “does not have inhibitory activity”; in [9], “does not have inhibitory activity”; in data set [10], “does not have inhibitory activity”; in data set [11] it was “does not have inhibitory activity”. For the same compound, the inhibitory activity entry in [12], in [13] and in data set [14] was “does not have inhibitory activity” in each case. For the same compound, the metabolism result in “Metabolism in the body” is “metabolized to phosphonoformic acid and thiophosphonic acid”.
